Where “and” joins values, the source holds several entries; their conditions need not be identical. Identical values can stand only once. Like-named read-outs stand apart in the source and are kept apart here. Marks after values point to notes of the source that are not given here.
What was measured:
[1] = target: T1, human PTEFb (CDK9/Cyclin T1) (Homo sapiens, UniProt P50750); assay: Surface Plasmon Resonance PTEFb (Method 8); assay type: binding; settings: 25° C., experimental parameters A-G per value; for Target resident time: 1/koff; for koff: read-out: Dissociation rate constant koff
T1 construct: purchased ProQinase, Freiburg, Germany
T1 sequence (P50750 whole entry): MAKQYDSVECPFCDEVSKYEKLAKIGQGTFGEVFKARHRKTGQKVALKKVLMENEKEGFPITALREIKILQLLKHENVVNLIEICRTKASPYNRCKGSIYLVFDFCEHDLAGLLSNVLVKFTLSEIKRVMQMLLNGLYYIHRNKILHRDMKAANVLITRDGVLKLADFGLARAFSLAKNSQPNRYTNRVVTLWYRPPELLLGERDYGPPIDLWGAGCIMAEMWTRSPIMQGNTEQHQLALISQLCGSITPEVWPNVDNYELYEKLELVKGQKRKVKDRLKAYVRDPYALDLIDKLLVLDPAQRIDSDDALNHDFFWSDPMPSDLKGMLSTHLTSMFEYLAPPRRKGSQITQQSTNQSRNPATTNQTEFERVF
T1 sequence (O60563 whole entry partner): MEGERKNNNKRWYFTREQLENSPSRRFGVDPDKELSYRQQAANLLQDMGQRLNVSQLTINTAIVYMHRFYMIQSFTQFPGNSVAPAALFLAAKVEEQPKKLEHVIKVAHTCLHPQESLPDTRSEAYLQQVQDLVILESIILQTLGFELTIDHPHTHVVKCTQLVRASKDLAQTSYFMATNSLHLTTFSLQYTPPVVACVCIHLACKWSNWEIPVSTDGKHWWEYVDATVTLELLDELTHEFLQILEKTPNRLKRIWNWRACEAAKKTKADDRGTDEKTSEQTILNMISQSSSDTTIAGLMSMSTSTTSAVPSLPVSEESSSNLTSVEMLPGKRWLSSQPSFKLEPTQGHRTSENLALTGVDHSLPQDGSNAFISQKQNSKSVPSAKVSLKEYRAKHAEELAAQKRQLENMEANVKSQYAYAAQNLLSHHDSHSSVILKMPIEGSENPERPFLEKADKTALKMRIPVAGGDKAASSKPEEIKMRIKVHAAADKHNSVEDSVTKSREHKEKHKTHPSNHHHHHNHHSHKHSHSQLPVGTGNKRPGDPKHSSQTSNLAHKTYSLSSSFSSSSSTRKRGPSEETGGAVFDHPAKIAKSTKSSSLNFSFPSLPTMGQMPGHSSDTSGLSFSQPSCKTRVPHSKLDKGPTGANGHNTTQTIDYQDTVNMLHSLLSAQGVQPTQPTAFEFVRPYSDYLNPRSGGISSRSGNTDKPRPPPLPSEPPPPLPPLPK
Description: 8. Surface Plasmon Resonance PTEFb
The ability of the compounds according to the invention to bind human PTEFb may be determined using surface plasmon resonance (SPR). KD values and koff values may be measured using a Biacore® T200 instrument (GE Healthcare, Uppsala, Sweden).
For SPR measurements, recombinant human PTEFb (CDK9/Cyclin T1 recombinant human active protein kinase purchased from ProQinase, Freiburg, Germany) is immobilized using standard amine coupling (Johnsson B et al, Anal Biochem. 1991 Nov. 1; 198(2):268-77). Briefly, carboxymethylated dextran biosensor chips (CM7, GE Healthcare) are activated with N-ethyl-N′-(3-dimethylaminopropyl)-carbodiimide hydrochloride (EDC) and N-hydroxysuccinimide (NHS) according to the supplier's instructions. Human PTEFb is diluted in 1×HBS-EP+ (GE Healthcare) and injected on the activated chip surface. Subsequently, a 1:1 solution of 1 M ethanolamine-HCl (GE Healthcare) and 1×HBS-EP is injected to block unreacted groups, resulting in approximately 4000 response units (RU) of immobilized protein. A reference surface is generated by treatment with NHS-EDC and ethanolamine-HCl. Compounds are dissolved in 100% dimethylsulfoxide (DMSO, Sigma-Aldrich, Germany) to a concentration of 10 mM and subsequently diluted in running buffer (1×HBS-EP+ pH 7.4 [generated from HBS-EP+ Buffer 10× (GE Healthcare): 0.1 M HEPES, 1.5 M NaCl, 30 mM EDTA and 0.5% v/v Surfactant P20], 1% v/v DMSO). For kinetic measurements, serial dilutions of compound (0.82 nM up to 2 μM) are injected over immobilized protein. Binding kinetics is measured at 25° C. with a flow rate of 50 μl/min in running buffer. Compound concentrations are injected for 60 s followed by a dissociation time of 1800 s. The resulting sensorgrams are double-referenced against the reference surface as well as against blank injections.
The double-referenced sensorgrams are fit to a simple reversible Langmuir 1:1 reaction mechanism as implemented in the Biacore® T200 evaluation software 2.0 (GE Healthcare). In cases were full compound dissociation has not occurred at the end of the dissociation phase, the Rmax parameter (response at saturation) is fit as local variable. In all other cases, Rmax is fit as global variable.
Slight variations of experimental parameters are indicated by letters (A-G): […]

[2] = target: T2, CDK2/CycE (Homo sapiens, UniProt P24941); assay: CDK2/CycE kinase assay (TR-FRET, Method 2a); assay type: biochemical; settings: 10 μM ATP
T2 construct: GST; purchased ProQinase GmbH (Freiburg, Germany); host or cells: insect cells (Sf9)
Description: 2a. CDK2/CycE Kinase Assay:
CDK2/CycE-inhibitory activity of compounds of the present invention was quantified employing the CDK2/CycE TR-FRET assay as described in the following paragraphs:
Recombinant fusion proteins of GST and human CDK2 and of GST and human CycE, expressed in insect cells (Sf9) and purified by Glutathion-Sepharose affinity chromatography, were purchased from ProQinase GmbH (Freiburg, Germany). As substrate for the kinase reaction biotinylated peptide biotin-Ttds-YISPLKSPYKISEG (C-terminus in amid form) was used which can be purchased e.g. from the company JERINI Peptide Technologies (Berlin, Germany).
For the assay 50 nl of a 100 fold concentrated solution of the test compound in DMSO was pipetted into a black low volume 384 well microtiter plate (Greiner Bio-One, Frickenhausen, Germany), 2 μl of a solution of CDK2/CycE in aqueous assay buffer [50 mM Tris/HCl pH 8.0, 10 mM MgCl2, 1.0 mM dithiothreitol, 0.1 mM sodium ortho-vanadate, 0.01% (v/v) Nonidet-P40 (Sigma)] were added and the mixture was incubated for 15 min at 22° C. to allow pre-binding of the test compounds to the enzyme before the start of the kinase reaction. […] The concentration of CDK2/CycE was adjusted depending of the activity of the enzyme lot and was chosen appropriate to have the assay in the linear range, typical concentrations were in the range of 130 ng/mL. The reaction was stopped by the addition of 5 μl of a solution of TR-FRET detection reagents (0.2 μM streptavidine-XL665 [Cisbio Bioassays, Codolet, France] and 1 nM anti-RB(pSer807/pSer811)-antibody from BD Pharmingen [#558389] and 1.2 nM LANCE EU-W1024 labeled anti-mouse IgG antibody [Perkin-Elmer, product no. AD0077]) in an aqueous EDTA-solution (100 mM EDTA, 0.2% (w/v) bovine serum albumin in 100 mM HEPES pH 7.5).
The resulting mixture was incubated 1 h at 22° C. to allow the formation of complex between the phosphorylated biotinylated peptide and the detection reagents. Subsequently the amount of phosphorylated substrate was evaluated by measurement of the resonance energy transfer from the Eu-chelate to the streptavidine-XL. Therefore, the fluorescence emissions at 620 nm and 665 nm after excitation at 350 nm was measured in a TR-FRET reader, e.g. a Rubystar (BMG Labtechnologies, Offenburg, Germany) or a Viewlux (Perkin-Elmer). The ratio of the emissions at 665 nm and at […] was taken as the measure for the amount of phosphorylated substrate. The data were normalised (enzyme reaction without inhibitor=0% inhibition, all other assay components but no enzym=100% inhibition).

[3] = test system: MOLM-13 cells; assay: Proliferation assay, Cell Titre-Glo viability (Method 3); assay type: cell-based; settings: Homo sapiens; MOLM-13, 72-hour exposure; read-out: Inhibition of MOLM-13 cell proliferation IC50
Procedure: A2780 human ovarian carcinoma cells (ECACC #93112519) and non-adherent MOLM-13 human acute myeloid leukemia cells (DSMZ ACC 554) were seeded at a density of 3,000 cell/well (A2780) or 5,000 cells/well (MOLM-13) in a 96-well multititer plate in 150 μL of growth medium supplemented 10% fetal calf serum. After 24 hours, cell viability of one plate (zero-point plate) was determined with the Cell Titre-Glo Luminescent Cell Viability Assay (Promega), while the medium of the other plates was supplemented with the test substances in various concentrations (0 μM, as well as in the range of 0.0001-10 μM; the final concentration of the solvent dimethyl sulfoxide was adjusted to 0.1%) using a Hewlett-Packard HP D300 Digital Dispenser. Cell viability was assessed after 72-hour exposure with the Cell
Titre-Glo Luminescent Cell Viability Assay (Promega). IC50 values (inhibitory concentration at 50% of maximal effect) were determined by means of a 4 parameter fit on measurement data which were normalized to vehicle (DMSO) treated cells (=100%) and measurement readings taken immediately before compound exposure (=0%).

[4] = target: T1, human PTEFb (CDK9/Cyclin T1); assay: Surface Plasmon Resonance PTEFb (Method 8); assay type: binding; settings: 37° C., experimental parameters E

Structure (SMILES)	Target resident time [1]	Dissociation rate constant koff [1] [s⁻¹]	koff [1] [s⁻¹]	IC50 [2] [nM]	IC50 [3] [nM]	Target resident time ([4]; 1/koff)	koff ([4]; read-out: Dissociation rate constant koff) [s⁻¹]
CS(=O)(Cc1cc2nc(c1)Nc1cc(c(F)cn1)-c1ccc(F)cc1OCCCCN2)=NC(=O)OCc1ccccc1 (racemic) [Example 2, (rac)-Benzyl[{[16,20-difluoro-3,4,5,6-tetrahydro-2H,12H-11,7-(azeno)-13,17-(metheno)-1,6,12,14-benzoxatriazacyclononadecin-9-yl]methyl}(methyl)oxido-λ^6-sulfanylidene]carbamate]	44.9 min and 33.1 min	0.000504	0.000371	698	3		
C[S+]([O-])Cc1cc2nc(c1)OCCCCc1cc(F)ccc1-c1cc(ncc1F)N2 (racemic) [Example 5, (rac)-2,18-Difluoro-9-[(methylsulfinyl)methyl]-13,14,15,16-tetrahydro-6H-7,11-(azeno)-5,1-(metheno)-12,4,6-benzoxadiazacyclooctadecine]	17.2 min		0.000968	275	24		
CC(C)(C)OC(=O)N=S(C)(=O)Cc1cc2nc(c1)Nc1cc(c(F)cn1)-c1ccc(F)cc1OCCCN2 (racemic) [Example 7, (rac)-tert-butyl[{[15,19-difluoro-2,3,4,5-tetrahydro-11H-10,6-(azeno)-16,12-(metheno)-1,5,11,13-benzoxatriazacyclooctadecin-8-yl]methyl}(methyl)oxido-λ^6-sulfanylidene]carbamate]	>666* min		< 2.5e-05	27	6.8		
C[S+]([O-])Cc1cc2nc(c1)OCCCCCc1cc(F)ccc1-c1cc(ncc1F)N2 (racemic) [Example 19, (rac)-2,19-difluoro-9-[(methylsulfinyl)methyl]-14,15,16,17-tetrahydro-6H,13H-7,11-(azeno)-5,1-(metheno)-12,4,6-benzoxadiazacyclononadecine]	4.8* min		0.00345	371	231		
CN1CCCCOc2cc(F)ccc2-c2nc(ncc2F)Nc2cc(CS(C)(=N)=O)cc1c2 (racemic) [Example 23, (rac)-16,20-difluoro-6-methyl-9-[(S-methylsulfonimidoyl)methyl]-3,4,5,6-tetrahydro-2H,12H-13,17-(azeno)-11,7-(metheno)-1,6,12,14-benzoxatriazacyclononadecine]	87.3* min		0.000191	104	9.8		
CSCc1cc2nc(c1F)N(C)CCCCOc1cc(F)ccc1-c1cc(ncc1F)N2 [Example 12, 8,16,20-trifluoro-6-methyl-9-[(methylsulfanyl)methyl]-3,4,5,6-tetrahydro-2H,12H-11,7-(azeno)-13,17-(metheno)-1,6,12,14-benzoxatriazacyclononadecine]				27	100		

The remaining molecules from weak to strong by IC50 [3], led by results:

Target resident time [1]	Dissociation rate constant koff [1] [s⁻¹]	koff [1] [s⁻¹]	IC50 [2] [nM]	IC50 [3] [nM]	Target resident time ([4]; 1/koff)	koff ([4]; read-out: Dissociation rate constant koff) [s⁻¹]	Structure (SMILES)
14.6 min		0.00114	> 20000	970			CSCc1cc2nc(c1)OCCCCc1cc(F)ccc1-c1cc(ncc1F)N2 [Example 4, 2,18-Difluoro-9-[(methylsulfanyl)methyl]-13,14,15,16-tetrahydro-6H-7,11-(azeno)-5,1-(metheno)-12,4,6-benzoxadiazacyclooctadecine]
14.7* min		0.00113	162	79			CS(=N)(=O)Cc1cc2nc(c1)OCCCCCc1cc(F)ccc1-c1cc(ncc1F)N2 (racemic) [Example 20, (rac)-2,19-difluoro-9-[(S-methylsulfonimidoyl)methyl]-14,15,16,17-tetrahydro-6H,13H-7,11-(azeno)-5,1-(metheno)-12,4,6-benzoxadiazacyclononadecine]
				23	17.5* min	0.000954	CS(=N)(=O)Cc1cc2cc(c1)OCCCCSc1cc(F)ccc1-c1nc(ncc1F)N2 (racemic) [Example 22, (rac)-16,20-difluoro-9-[(S-methylsulfonimidoyl)methyl]-2,3,4,5-tetrahydro-12H-17,13-(azeno)-11,7-(metheno)-6,1,12,14-benzoxathiadiazacyclononadecine]
> 666 min and 372.9 min	4.47e-05	< 2.5e-05	262	18			CC(C)(C)OC(=O)N=S(C)(=O)Cc1cc2cc(c1)OCCCCNc1cc(F)ccc1-c1nc(ncc1F)N2 (racemic) [Example 15, (rac)-tert-butyl[{[16,20-difluoro-2,3,4,5-tetrahydro-1H,12H-13,17-(azeno)-11,7-(metheno)-6,1,12,14-benzoxatriazacyclononadecin-9-yl]methyl}(methyl)oxido-λ^6-sulfanylidene]carbamate]
>666* min		< 2.5e-05	34	8.2			CN1CCCCOc2cc(F)ccc2-c2cc(ncc2F)Nc2cc(CS(C)(=N)=O)cc1n2 (racemic) [Example 11, (rac)-16,20-difluoro-6-methyl-9-[(S-methylsulfonimidoyl)methyl]-3,4,5,6-tetrahydro-2H-7,11-(azeno)-17,13-(metheno)-1,6,12,14-benzoxatriazacyclononadecine]
